Columns and labels:
[1] = xn = mol fraction of the nth substance listed

C1COCCN1 [tetrahydro-1,4-oxazine]
Conditions	surface tension liquid-gas [mN/m]
298.15 K	37.68
308.15 K	36.46
318.15 K	35.24
328.15 K	34.02

O [water] + CN1CCOCC1
[1], x2 = 0
Conditions	surface tension liquid-gas [mN/m]
298.15 K	72.01
308.15 K	70.41
318.15 K	68.79
328.15 K	67.17

CN1CCOCC1 [N-methylmorpholine] + O
surface tension liquid-gas [mN/m], [1]
Conditions	298.15 K	308.15 K	318.15 K	328.15 K
x1 = 0.0082	69.64	67.64	65.75	63.98
x1 = 0.0256	54.94	53.18	51.42	49.66
x1 = 0.0481	50.58	48.64	46.7	44.76
x1 = 0.0539	49.42	47.71	46	44.3
x1 = 0.0747	46.86	45.35	43.83	42.32
x1 = 0.0992	44.62	43.24	41.87	40.49
x1 = 0.1962	38.66	37.36	36.05	34.75
x1 = 0.2972	34.9	33.66	32.43	31.19
x1 = 0.395	32.72	31.54	30.35	29.16
x1 = 0.4993	31.33	30.17	29.02	27.86
x1 = 0.5952	30.56	29.47	28.37	27.28
x1 = 0.6979	29.81	28.73	27.65	26.57
x1 = 0.8028	29.24	28.14	27.03	25.93
x1 = 0.8925	28.81	27.69	26.57	25.45
x1 = 1	28.22	27.2	26.18	25.15

C1COCCN1 [tetrahydro-1,4-oxazine] + O
surface tension liquid-gas [mN/m], [1]
Conditions	298.15 K	308.15 K	318.15 K	328.15 K
x1 = 0.0125	68.36	66.65	64.55	62.68
x1 = 0.0155	67.66	65.85	66.74	61.8
x1 = 0.0251	65.41	63.27	61.14	59
x1 = 0.0496	62.08	60.05	58.03	56
x1 = 0.06	60.89	58.94	56.98	55.03
x1 = 0.0735	59.6	57.66	55.72	53.78
x1 = 0.0793	59.43	57.69	55.63	53.65
x1 = 0.0854	58.94	56.56	54.18	51.8
x1 = 0.0991	57.71	55.42	53.12	50.83
x1 = 0.2005	51.23	49.14	47.05	44.96
x1 = 0.2973	47.24	45.52	43.8	42.09
x1 = 0.3969	44.64	43.2	41.75	40.31
x1 = 0.4996	43.06	41.7	40.33	38.97
x1 = 0.5977	41.55	40.25	38.96	37.66
x1 = 0.7005	40.33	39.12	37.91	36.7
x1 = 0.8034	39.3	38.1	36.9	35.69
x1 = 0.9096	38.38	37.16	35.95	34.73
x1 = 1	37.68	36.46	35.24	34.02

O [water] + C1COCCN1
[1], x2 = 0
Conditions	surface tension liquid-gas [mN/m]
298.15 K	72.01
308.15 K	70.41
318.15 K	68.79
328.15 K	67.17

CN1CCOCC1 [N-methylmorpholine]
Conditions	surface tension liquid-gas [mN/m]
298.15 K	28.22
308.15 K	27.2
318.15 K	26.18
328.15 K	25.15
